Experimental findings from patent publication US20100280035A1, “SOLID PHARMACEUTICAL COMPOSITION COMPRISING 1-(4-CHLOROANILINO)-4-(4-PYRIDYLMETHYL)PHTHALAZINE AND A PH MODIFIER” (priority 2005, published 2010) are described below.

A short description of the data set: Permeability of the Agent in the small intestine.

Regarding `Clc1ccc(Nc2nnc(Cc3ccncc3)c3ccccc23)cc1.O=C(O)CCC(=O)O` [Agent, 1-(4-chloroanilino)-4-(4-pyridylmethyl)phthalazine succinate], the permeability entry is reported as “good”.
